PubChem BioAssay (NCI)
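Growth conditions: 96-well plates. Treatment: test compound, 48 hours, 5 concentrations. Analysis: linear interpolation between bracketing concentrations; unreached endpoints set to highest concentration. TGI: total growth inhibition.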

What was measured:
Assay in all cases: DTP human tumour cell line panel, 48 h
[1] = tested on: MALME-3M melanoma
[2] = tested on: UACC-62 melanoma
[3] = tested on: SNB-19 CNS
[4] = tested on: NCI-H460 lung
[5] = tested on: LOX IMVI melanoma
[6] = tested on: RPMI-8226 leukemia
[7] = tested on: SF-268 CNS
[8] = tested on: UO-31 renal
[9] = tested on: SNB-78 CNS
[10] = tested on: SF-539 CNS
[11] = tested on: KM20L2 colon
[12] = tested on: U251 CNS
[13] = tested on: DMS 273 small cell lung
[14] = tested on: HOP-62 NSCLC
[15] = tested on: SNB-75 CNS
[16] = tested on: DLD-1 colon
[17] = tested on: NCI-H23 lung
[18] = tested on: OVCAR-3 ovarian
[19] = tested on: OVCAR-4 ovarian
[20] = tested on: ACHN renal
[21] = tested on: NCI-H226 lung
[22] = tested on: SK-MEL-28 melanoma
[23] = tested on: SK-MEL-5 melanoma
[24] = tested on: UACC-257 melanoma
[25] = tested on: DMS 114 small cell lung
[26] = tested on: OVCAR-5 ovarian
[27] = tested on: COLO 205 colon
[28] = tested on: LXFL 529 NSCLC
[29] = tested on: KM12 colon
[30] = tested on: SN12C renal
[31] = tested on: SF-295 CNS
[32] = tested on: A549 NSCLC
[33] = tested on: M19-MEL melanoma
[34] = tested on: NCI-H522 lung
[35] = tested on: SW-620 colon
[36] = tested on: M14 melanoma
[37] = tested on: SR leukemia
[38] = tested on: RXF 393 renal
[39] = tested on: RXF-631 renal
[40] = tested on: CAKI-1 renal
[41] = tested on: HCC-2998 colon
[42] = tested on: MOLT-4 leukemia
[43] = tested on: SK-MEL-2 melanoma
[44] = tested on: HCT-15 colon
[45] = tested on: OVCAR-8 ovarian
[46] = tested on: HT29 colon
[47] = tested on: K-562 leukemia
[48] = tested on: TK-10 renal
[49] = tested on: HCT-116 colon
[50] = tested on: IGROV1 ovarian

For CCOC(=O)c1nc2ccc(OC)cc2c2c1Cc1ccccc1-2, the TGI [1] was > 100 µM, the TGI [2] was > 100 µM and the TGI [3] was > 100 µM. The TGI [4] was > 100 µM, the TGI [5] was > 100 µM and the TGI [6] was > 100 µM. The TGI [7] was > 100 µM, the TGI [8] was > 100 µM and the TGI [9] was > 100 µM. For the same compound, the TGI [10] was > 100 µM, the TGI [11] was > 100 µM and the TGI [12] was > 100 µM. The TGI [13] was > 100 µM, the TGI [14] was > 100 µM and the TGI [15] was > 100 µM. For the same compound, the TGI [16] was > 100 µM, the TGI [17] was > 100 µM and the TGI [18] was > 100 µM. For the same compound, the TGI [19] was > 100 µM, the TGI [20] was > 100 µM and the TGI [21] was > 100 µM. For the same compound, the TGI [22] was > 100 µM, the TGI [23] was > 100 µM and the TGI [24] was > 100 µM. For the same compound, the TGI [25] was > 100 µM, the TGI [26] was > 100 µM and the TGI [27] was > 100 µM. For the same compound, the TGI [28] was > 100 µM, the TGI [29] was > 100 µM and the TGI [30] was > 100 µM. The TGI [31] was > 100 µM, the TGI [32] was > 100 µM and the TGI [33] was > 100 µM. For the same compound, the TGI [34] was > 100 µM, the TGI [35] was > 100 µM and the TGI [36] was > 100 µM. For the same compound, the TGI [37] was > 100 µM, the TGI [38] was 71.6 µM and the TGI [39] was > 100 µM. The TGI [40] was > 100 µM, the TGI [41] was > 100 µM and the TGI [42] was > 100 µM. The TGI [43] was > 100 µM, the TGI [44] was > 100 µM and the TGI [45] was > 100 µM. For the same compound, the TGI [46] was > 100 µM, the TGI [47] was > 100 µM and the TGI [48] was > 100 µM. The TGI [49] was > 100 µM and the TGI [50] was > 100 µM.
